# Target: T1, full-length MALT1 protein His-MALT1(1-824) (Homo sapiens, UniProt Q9UDY8)
# T1 construct: full-length MALT1 protein His-MALT1(1-824); His (N); made in house; host or cells: baculovirus-infected insect cells
# T1 sequence (Q9UDY8 1-824): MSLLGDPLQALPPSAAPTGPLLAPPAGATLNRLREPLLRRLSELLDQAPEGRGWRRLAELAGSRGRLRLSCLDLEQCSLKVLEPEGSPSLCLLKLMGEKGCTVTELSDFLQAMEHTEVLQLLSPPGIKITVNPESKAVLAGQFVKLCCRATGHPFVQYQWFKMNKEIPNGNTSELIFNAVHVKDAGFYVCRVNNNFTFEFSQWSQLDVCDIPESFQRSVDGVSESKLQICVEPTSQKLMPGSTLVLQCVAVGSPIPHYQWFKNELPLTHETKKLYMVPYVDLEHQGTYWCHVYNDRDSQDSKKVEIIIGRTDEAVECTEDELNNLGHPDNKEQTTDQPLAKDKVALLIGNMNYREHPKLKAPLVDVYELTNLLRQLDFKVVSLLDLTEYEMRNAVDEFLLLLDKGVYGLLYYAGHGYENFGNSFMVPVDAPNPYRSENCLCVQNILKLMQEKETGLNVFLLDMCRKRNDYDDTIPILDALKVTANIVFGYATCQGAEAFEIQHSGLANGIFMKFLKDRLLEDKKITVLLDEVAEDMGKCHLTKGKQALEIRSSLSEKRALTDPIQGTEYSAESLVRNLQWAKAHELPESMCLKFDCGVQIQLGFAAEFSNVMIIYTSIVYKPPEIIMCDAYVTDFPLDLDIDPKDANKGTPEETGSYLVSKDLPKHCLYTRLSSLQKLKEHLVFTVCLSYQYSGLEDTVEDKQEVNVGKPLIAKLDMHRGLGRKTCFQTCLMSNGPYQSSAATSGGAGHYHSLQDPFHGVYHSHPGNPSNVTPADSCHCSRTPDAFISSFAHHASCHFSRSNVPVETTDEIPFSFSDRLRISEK
# Assay: MALT1 protease assay (Ac-LRSR-AMC tetrapeptide substrate, fluorescence)
# Format: biochemical
# Settings: 1 nM MALT1, 25 μM Ac-LRSR-AMC, 2 h pre-incubation, 8 hr incubation at RT
# Procedure, shortened: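 Full-length His-MALT1(1-824) from baculovirus-infected insect cells (1 nM) was pre-incubated 2 h at RT with compounds (0.1% DMSO), then 25 μM Ac-LRSR-AMC added in 50 mM Tris pH 7.5, 600 mM sodium citrate, 1 mM DTT, 1 mM EDTA, 0.05% BSA. Fluorescence (ex 355/em 460 nm) read after 8 h at RT; IC50 by non-linear regression of % remaining activity.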
row,Structure (SMILES),IC50 [nM]
1,"C[C@@]1(c2cnn(C(F)(F)F)c2)C[C@@H](C(=O)Nc2cnc(-n3nccn3)c(Cl)c2)c2cnc3cc(F)nn3c21 (single isomer, unassigned) [Example 103]",≥ 1000
2,"Cn1cc([C@@]2(C)C[C@@H](C(=O)Nc3cnc(OC(F)(F)F)c(C#N)c3)c3cnc4cc(F)nn4c32)cn1 (single isomer, unassigned) [Example 55]",100 to 1000
3,"C[C@@]1(c2cncs2)C[C@@H](C(=O)Nc2cnc(-n3nccn3)c(Cl)c2)c2cnc3cc(F)nn3c21 (single isomer, unassigned) [Example 37]",≥ 1000
4,"Cn1cc([C@]2(C)C[C@@H](C(=O)Nc3cnc(-n4nccn4)c(Cl)c3)c3cnc4c(Cl)c(F)nn4c32)cn1 (single isomer, unassigned) [Example 17]",≥ 1000
5,"C[C@@]1(c2cnn(C(F)F)c2)C[C@H](C(=O)Nc2cnc(-n3nccn3)c(Cl)c2)c2cnc3cc(F)nn3c21 (single isomer, unassigned) [Example 26]",10 to 100
6,"Cc1cc(NC(=O)[C@@H]2C[C@@](C)(c3cnn(C)c3)c3c2cnc2cc(F)nn32)cnc1OC(F)F (single isomer, unassigned) [Example 61]",≥ 1000
7,"CC1(n2cc([C@]3(C)C[C@H](C(=O)Nc4cnc(-n5nccn5)c(Cl)c4)c4cnc5cc(F)nn5c43)cn2)CC1 (single isomer, unassigned) [Example 108]",100 to 1000
8,"Cn1nccc1[C@]1(C)C[C@@H](C(=O)Nc2cnc(-n3nccn3)c(Cl)c2)c2cnc3cc(F)nn3c21 (single isomer, unassigned) [Example 65]",≥ 1000
9,"C[C@]1(c2cncs2)C[C@@H](C(=O)Nc2cnc(-n3nccn3)c(Cl)c2)c2cnc3cc(F)nn3c21 (single isomer, unassigned) [Example 39]",10 to 100
10,"C[C@]1(c2cnn(C(F)F)c2)C[C@H](C(=O)Nc2cnc(-c3ncc(F)cn3)c(C(F)(F)F)c2)c2cnc3cc(F)nn3c21 [Example 132, (6S,8R)-8-(1-(difluoromethyl)-1H-pyrazol-4-yl)-2-fluoro-N-(6-(5-fluoropyrimidin-2-yl)-5-(trifluoromethyl)pyridin-3-yl)-8-methyl-7,8-dihydro-6H-cyclopenta[e]pyrazolo[1,5-a]pyrimidine-6-carboxamide]",10 to 100
11,"C[C@@]1(c2cnn(C(F)F)c2)C[C@H](C(=O)Nc2cnc(-n3nccn3)c(C(F)(F)F)c2)c2cnc3cc(F)nn3c21 (single isomer, unassigned) [Example 82]",10 to 100
12,"Cn1cc([C@@]2(C)C[C@H](C(=O)Nc3ccnc(C(F)(F)F)c3)c3cnc4cc(Cl)nn4c32)cn1 (single isomer, unassigned) [Example 44]",10 to 100
13,"Cn1cc([C@]2(C)C[C@H](C(=O)Nc3cnc(OC(F)(F)F)c(C#N)c3)c3cnc4cc(F)nn4c32)cn1 (single isomer, unassigned) [Example 54]",100 to 1000
14,"Cn1nccc1[C@@]1(C)C[C@@H](C(=O)Nc2cnc(-n3nccn3)c(Cl)c2)c2cnc3cc(F)nn3c21 (single isomer, unassigned) [Example 67]",≥ 1000
15,"Cn1cc([C@]2(C)C[C@H](C(=O)Nc3ccnc(C(F)(F)F)c3)c3cnc4cc(Cl)nn4c32)cn1 (single isomer, unassigned) [Example 46]",100 to 1000
16,"C[C@@]1(c2cnn(C(F)(F)F)c2)C[C@H](C(=O)Nc2cnc(-n3nccn3)c(Cl)c2)c2cnc3cc(F)nn3c21 (single isomer, unassigned) [Example 104]",100 to 1000
17,"Cn1ccc([C@]2(C)C[C@H](C(=O)Nc3cnc(OC(F)F)c(C#N)c3)c3cnc4cc(F)nn4c32)n1 (single isomer, unassigned) [Example 70]",100 to 1000
18,"Cn1ccc([C@]2(C)C[C@H](C(=O)Nc3cnc(-n4nccn4)c(Cl)c3)c3cnc4cc(F)nn4c32)n1 (single isomer, unassigned) [Example 34]",100 to 1000
19,"C[C@]1(c2ccn(C(F)F)n2)C[C@@H](C(=O)Nc2cnc(-n3nccn3)c(C(F)(F)F)c2)c2cnc3cc(F)nn3c21 (single isomer, unassigned) [Example 127]",10 to 100
20,"Cc1cc(NC(=O)[C@@H]2C[C@](C)(c3cnn(C)c3)c3c2cnc2cc(F)nn32)cnc1OC(F)F (single isomer, unassigned) [Example 63]",≥ 1000
21,"Cn1cc([C@@]2(C)C[C@H](C(=O)Nc3cnc(-n4nccn4)c(Cl)c3)c3cnc4c(Cl)c(F)nn4c32)cn1 (single isomer, unassigned) [Example 16]",100 to 1000
22,"Cn1cc([C@@]2(C)C[C@@H](C(=O)Nc3cnc(-n4nccn4)c(C(F)(F)F)c3)c3cnc4cc(F)nn4c32)cn1 (single isomer, unassigned) [Example 6]",100 to 1000
23,"CC(C)n1cc([C@]2(C)C[C@H](C(=O)Nc3cnc(-n4nccn4)c(Cl)c3)c3cnc4cc(F)nn4c32)cn1 (single isomer, unassigned) [Example 50]",10 to 100

# The remaining lines, values ahead:
row,IC50 [nM],Structure (SMILES)
1,10 to 100,"Cc1cc(NC(=O)C2CC(C)(c3ccn(C(F)F)n3)c3c2cnc2cc(F)nn32)cnc1-c1ncccn1 (single isomer, unassigned) [Example 183]"
2,≥ 1000,"CC1(n2ccc([C@]3(C)C[C@@H](C(=O)Nc4cnc(-c5ncccn5)c(C(F)(F)F)c4)c4cnc5cc(F)nn5c43)n2)CC1 (single isomer, unassigned) [Example 159]"
3,< 10,"C[C@]1(c2cnn(C(F)F)n2)C[C@H](C(=O)Nc2cnc(-n3nccn3)c(Cl)c2)c2cnc3cc(F)nn3c21 (single isomer, unassigned) [Example 177]"
4,100 to 1000,"CC1(c2cnn(C(F)F)c2)CC(C(=O)Nc2cnc(-c3ncc(F)cn3)c(C(F)(F)F)c2)c2cnc3cc(F)nn3c21 (single isomer, unassigned) [Example 133]"
5,≥ 1000,"C[C@]1(c2ccn(C(F)F)n2)C[C@@H](C(=O)Nc2cnc(-c3ncccn3)c(Cl)c2)c2cnc3cc(F)nn3c21 (single isomer, unassigned) [Example 143]"
6,100 to 1000,"CC1(n2ccc([C@]3(C)C[C@H](C(=O)Nc4cnc(-c5ncccn5)c(C(F)(F)F)c4)c4cnc5cc(F)nn5c43)n2)CC1 (single isomer, unassigned) [Example 160]"
7,≥ 1000,"C[C@]1(c2ccn(C3CC3)n2)C[C@@H](C(=O)Nc2cnc(-n3nccn3)c(Cl)c2)c2cnc3cc(F)nn3c21 (single isomer, unassigned) [Example 155]"
8,100 to 1000,"C[C@@]1(c2ccn(C3CC3)n2)C[C@H](C(=O)Nc2cnc(-n3nccn3)c(Cl)c2)c2cnc3cc(F)nn3c21 (single isomer, unassigned) [Example 154]"
9,≥ 1000,"CC1(c2ccn(C(F)F)n2)CC(C(=O)Nc2cnc(-c3cccnn3)c(C(F)(F)F)c2)c2cnc3cc(F)nn3c21 (single isomer, unassigned) [Example 163]"
10,10 to 100,"CC(F)(F)n1ccc([C@@]2(C)C[C@H](C(=O)Nc3cnc(-c4ncccn4)c(Cl)c3)c3cnc4cc(F)nn4c32)n1 (single isomer, unassigned) [Example 168]"
11,10 to 100,"CC1(n2ccc([C@@]3(C)C[C@H](C(=O)Nc4cnc(-c5ncccn5)c(C(F)(F)F)c4)c4cnc5cc(F)nn5c43)n2)CC1 (single isomer, unassigned) [Example 158]"
12,100 to 1000,"C[C@@]1(c2cnn(C(F)F)n2)C[C@@H](C(=O)Nc2cnc(-n3nccn3)c(Cl)c2)c2cnc3cc(F)nn3c21 (single isomer, unassigned) [Example 178]"

# — US20260049085A1, “CYCLIC COMPOUNDS AND METHODS OF USING SAME” (SCHRÖDINGER, INC., priority 2022, published 2026)
